From the supplement of paper PMC8967900

Experiments:
Experiment in all cases: selective drug sensitivity score (sDSS, relative to normal bone marrow) (sDSS (score)); higher = more potent and effective on the cell line relative to normal bone marrow cells
Details in all cases: 72 h
MHH-CALL-2 = system: MHH-CALL-2
MN-60 = system: MN-60
P12-ICHIKAWA = system: P12-ICHIKAWA
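Further: ALL cell lines in 384-well plates, five doses spanning 10,000-fold, each plate scaled between vehicle and 100 µmol/L benzalkonium chloride controls, sDSS an adapted area-under-curve metric.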

Compound	selective drug sensitivity score (MHH-CALL-2)	selective drug sensitivity score (MN-60)	selective drug sensitivity score (P12-ICHIKAWA)
C=C1C[C@@H]2CC[C@@]34C[C@H]5O[C@H]6[C@@H](O3)[C@H]3O[C@H](CC[C@@H]3O[C@H]6[C@H]5O4)CC(=O)C[C@@H]3[C@@H](OC)[C@@H](C[C@H](O)CN)O[C@H]3C[C@H]3O[C@@H](CC[C@@H]1O2)C[C@@H](C)C3=C [Eribulin] (top concentration 1000 nM)	15.8	3.8	16.7
COc1cc(Br)c(Nc2nc(-c3c(C)nc4ncccn34)cs2)c(Br)c1 [PTC-209] (top concentration 10000 nM)	1.92	0.42	0.42
CCCOc1ccn2c(C(C)=O)cc(-c3ccccc3S(C)(=O)=O)c2c1 [GSK2801] (top concentration 10000 nM)	-0.16	-0.36	-0.16
C#Cc1cccc(Nc2ncnc3cc4c(cc23)OCCOCCOCCO4)c1 [Icotinib] (top concentration 10000 nM)	4.8	0.6	0.6
CN(C)C[C@@H]1CCn2cc(c3ccccc32)C2=C(C(=O)NC2=O)c2cn(c3ccccc23)CCO1 [Ruboxistaurin] (top concentration 10000 nM)	3.66	-5.44	-1.74
C=CCc1cccc(/C=N/NC(=O)CN2CCN(Cc3ccccc3)CC2)c1O [PAC-1] (top concentration 10000 nM)	5.58	4.08	1.68
Oc1ncnc2[nH]ncc12 [Allopurinol] (top concentration 10000 nM)	-0.64	-0.64	-0.64
CC#CC(=O)N1CCC[C@H]1c1nc(-c2ccc(C(=O)Nc3ccccn3)cc2)c2c(N)nccn12 [Acalabrutinib] (top concentration 1000 nM)	9	-0.1	-0.1
CNC(=O)c1ccc2cc([C@@]3(O)CCn4cncc43)ccc2c1 [Orteronel] (top concentration 10000 nM)	0	0	0
C[C@H]1CNCCCN1S(=O)(=O)c1cccc2cncc(F)c12 [Ripasudil] (top concentration 10000 nM)	-0.02	-0.22	1.18
COc1cc2ncnc(Nc3ccc(F)c(Cl)c3)c2cc1NC(=O)/C=C/CN1CCCCC1 [Dacomitinib] (top concentration 1000 nM)	2.06	-1.64	-1.44
O=c1[nH]cc(F)c(=O)[nH]1 [Fluorouracil] (top concentration 10000 nM)	-0.04	-0.64	0.46
CCNC(=O)CCC/C=C\C[C@@H]1[C@@H](/C=C/[C@@H](O)CCc2ccccc2)[C@H](O)C[C@@H]1O [Bimatoprost] (top concentration 5500 nM)	0	0	0
O=C1CN2Cc3c(ccc(Cl)c3Cl)N=C2N1 [Anagrelide] (top concentration 10000 nM)	1.5	0	0
C[C@@H]1C[C@H]2[C@@H]3CCC4=CC(=O)C=C[C@]4(C)[C@@]3(F)[C@@H](O)C[C@]2(C)[C@@]1(O)C(=O)CO [Dexamethasone] (top concentration 10000 nM)	28.9	-0.52	28
COc1cc2c(cc1OCCCN1CCCC1)N=C(N)C21CCC1 [A-366] (top concentration 25000 nM)	-1.14	-1.84	-0.84
CCc1cc2c(cc1N1CCC(N3CCOCC3)CC1)C(C)(C)c1[nH]c3cc(C#N)ccc3c1C2=O [Alectinib] (top concentration 1000 nM)	-0.12	0.98	-0.22
Cc1cnc(NC(=O)Nc2cc(Br)c(C)cc2OC[C@@H]2CNCCO2)cn1 [Rabusertib] (top concentration 1000 nM)	0.66	3.56	-0.74
CN1CCC(COc2cnc(-c3cccc(Cn4nc(-c5cccc(C#N)c5)ccc4=O)c3)nc2)CC1 [Tepotinib] (top concentration 1000 nM)	-0.08	-0.08	-0.08
Cc1cc(F)c(C(=O)Nc2cccc(-c3nncn3C(C)C)n2)cc1-n1cnc(C2CC2)c1 [Selonsertib] (top concentration 1000 nM)	11.5	0	0
C[C@]12CC[C@H](O)CC1=CC[C@@H]1[C@@H]2CC[C@]2(C)C(c3cccnc3)=CC[C@@H]12 [Abiraterone] (top concentration 5000 nM)	0.88	-0.12	-0.12
Cc1cccc(-c2nn3c(c2-c2ccnc4ccc(C(N)=O)cc24)CCC3)n1 [Galunisertib] (top concentration 1000 nM)	8.5	0	0

Compound	selective drug sensitivity score (MHH-CALL-2)	selective drug sensitivity score (MN-60)	selective drug sensitivity score (P12-ICHIKAWA)
COc1cc(NS(C)(=O)=O)ccc1Nc1c2ccccc2nc2ccccc12 [Amsacrine] (top concentration 10000 nM)	10.5	-1.84	13.5
CC(C)n1cnc2c(NCCc3ccc(O)cc3)nc(-c3csc4ccccc34)nc21 [StemRegenin_1] (top concentration 10000 nM)	2.5	2.7	0.2
CC1(C)CNc2cc(NC(=O)c3cccnc3NCc3ccncc3)ccc21 [Motesanib] (top concentration 10000 nM)	-0.22	-0.22	-0.22
CNC(=O)c1cccc2cc(Oc3ccnc4cc(OCC5(N)CC5)c(OC)cc34)ccc12 [Lucitanib] (top concentration 10000 nM)	4.18	-0.62	1.28
COC(=O)c1ccc([C@H]2c3[nH]c4ccccc4c3C[C@H](C(=O)OC)N2C(=O)CCl)cc1 [RSL3] (top concentration 10000 nM)	0.1	0	0
O=C1c2c(O)ccc(O)c2C(=O)c2c(NCCNCCO)ccc(NCCNCCO)c21 [Mitoxantrone] (top concentration 1000 nM)	7.34	-3.86	8.84
COc1cc(C)[nH]c(=O)c1CNC(=O)c1c(C)n([C@H](C)C2CCOCC2)c2ccccc12 [CPI-360] (top concentration 10000 nM)	1.1	0	0
C/C(=C\c1csc(C)n1)[C@@H]1C[C@@H]2O[C@]2(C)CCC[C@H](C)[C@H](O)[C@@H](C)C(=O)C(C)(C)[C@@H](O)CC(=O)N1 [Ixabepilone] (top concentration 1000 nM)	1.88	1.48	2.58
Cn1cc(C[C@@H](N)C(=O)O)c2ccccc21 [1-methyl-D-tryptophan] (top concentration 5000 nM)	2.28	-0.62	-0.62
C=CC(=O)N1CCC(Oc2cc3c(Nc4ccc(Cl)c(Cl)c4F)ncnc3cc2OC)CC1 [Poziotinib] (top concentration 1000 nM)	-0.22	-0.22	-0.22
C[C@@H](Oc1cc(-c2cnn(C3CCNCC3)c2)cnc1N)c1c(Cl)ccc(F)c1Cl [Crizotinib] (top concentration 1000 nM)	-0.54	-0.54	-0.54
N#CC(c1ccnc(OCc2ccc(CN3CCOCC3)cc2)n1)c1nc2ccccc2s1 (centres undefined) [Bentamapimod] (top concentration 10000 nM)	4.94	2.44	2.94
CCCN(CCC)C(=O)C1=Cc2ccc(-c3ccc(C(=O)N4CCCC4)cc3)cc2N=C(N)C1 [Motolimod] (top concentration 10000 nM)	-3.98	-4.48	-3.18
COc1cc2ncnc(Nc3cccc(Cl)c3F)c2cc1OC(=O)N1CCN(C)C[C@H]1C [AZD3759] (top concentration 1000 nM)	1.56	-0.04	-0.04
Cc1c(F)cc(C(=O)NC2CC2)cc1-c1ccc(C(=O)NCC(C)(C)C)cn1 [Losmapimod] (top concentration 10000 nM)	-0.18	-0.18	-0.18
CN(CC(=O)N(Cc1ccc(C2CCCCC2)cc1)c1ccc(C(=O)O)cc1)S(=O)(=O)c1c(F)c(F)c(F)c(F)c1F [SH-4-54] (top concentration 25000 nM)	-7.24	-6.54	-6.04
Nc1cc(COc2c(Cl)cc(C[C@H](N)C(=O)O)cc2Cl)c2oc(-c3ccccc3)nc2c1 [JPH203] (top concentration 5000 nM)	0	0	0
CNC(=O)c1ccc(-c2cnc3ncc(Cc4ccc5ncccc5c4)n3n2)cc1F [Capmatinib] (top concentration 1000 nM)	-0.06	-0.06	-0.06
NC(=S)N/N=C/c1ncccc1N [Triapine] (top concentration 10000 nM)	3.48	1.48	5.18
CS(=O)(=O)CCNCc1ccc(-c2ccc3ncnc(Nc4ccc(OCc5cccc(F)c5)c(Cl)c4)c3c2)o1 [Lapatinib] (top concentration 1000 nM)	12.1	0	0
C[C@]12CC[C@@H]3c4ccc(O)cc4C[C@@H](CCCCCCCCC[S+]([O-])CCCC(F)(F)C(F)(F)F)[C@H]3[C@@H]1CC[C@@H]2O (some centres undefined) [Fulvestrant] (top concentration 1000 nM)	1.5	0	0
